According to paper PMC7794297:

Key:
[1] = Spermine-templated DCL of building blocks 1-4; details: spermine DCL of 1-4
Experimental: Building blocks 2 and 3 equipped with carboxylate moieties to establish interactions with the protonated amine groups of the spermine were allowed to equilibrate at pH 7.8 and 6 °C (Fig. 8a). As expected in our control experiment, the major component in the absence of spermine was the linear tetramer (2)2(3)2. After the addition of spermine, the linear tetramer “decomposed” in order to form mainly the cyclic tetramer of (2)4, and the (3)2 dimer (Fig. 8a). As it was reported, several studies determined that the spermine was threaded through the macrocycle fixing the configuration to a highly symmetric stereoisomer of (2)4[36]. […] The precise composition of the DCL (with and without spermine), was assessed by measuring the relative peak area (RPA). Indeed, the normalized change of RPA was used to quantify the spermine influence in the outcome (Supplementary Fig. 42)[46]. The same template (spermine) was tested in our reference DCL of four building blocks (1–4) in the absence and presence of Secox (Fig. 8b). […] Additionally, two different templates were tested to confirm the absence of conflict between selenocystine and the templating effect. Spermidine and NADPH were introduced in our 4 building blocks DCL (1–4) in the absence and presence of Secox, leading to the amplification of different species and getting the same results as the non-catalyzed DCLs (Supplementary Figs. 44, 45, Supplementary Tables 7–10, and Supplementary Methods).
The mixture was stabilized in 96 h. […] The mixture was stabilized after 24 h. […] It was stabilized in 24 h. […] DCL was equilibrated in 96 h. DCLs were performed without stirring at 6 °C and analyzed by HPLC-MS.

[2] = NADPH-templated DCL of building blocks 1-4;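 also: values are means ± SD of DCC experiments run in triplicate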

c1ccc(SSc2ccccc2)cc1 [(4)2]
Normalized Change of RPA (NC) ([1]; 0% Secox): 0,59 | Normalized Change of RPA (NC) ([1]; 5% Secox): 0,53 | Normalized Change of RPA (NC) ([2]; 0% Secox): -1,00 | Normalized Change of RPA (NC) ([2]; 5% Secox): -1,00
